# Measured values taken from paper PMC11189555, “Aryl amino acetamides prevent Plasmodium falciparum ring development via targeting the lipid-transfer protein PfSTART1” (Nature Communications, 2024).
# Like-named read-outs stand apart in the source and are kept apart here.
# Tests used:
# Format in all cases: cell-based, Plasmodium falciparum
# [1] = system: PopE-F10 M-833 resistant clone (PfSTART1 N330K); assay: Growth inhibition assay (72 h, LDH activity); conditions: for (av-uRBC) / (DMSO-uRBC) x100: PopE-F10, 20000 nM
# Outline: (§1)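 Synchronised ring-stage 3D7-derived clones (0.3-0.6% parasitemia, 2% haematocrit) grown 72 h in compound serial dilutions, some with 0, 0.25 or 2.5 mM glucosamine. Growth read as LDH activity after freeze-thaw (Malstat/NBT, A650), normalised to DMSO and uninfected RBC; EC50 from variable-slope log(inhibitor) fit.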
# [2] = system: PopD-D7 M-833 resistant clone (PfSTART1 N309K); assay: Growth inhibition assay (72 h, LDH activity); conditions: for inhibition at 0.0390625 µM / inhibition at 0.078125 µM / inhibition at 0.15625 µM / inhibition at 0.3125 µM / inhibition at 0.625 µM / inhibition at 1.25 µM / inhibition at 2.5 µM / inhibition at 5 µM / inhibition at 10 µM / EC50: Plasmodium falciparum; for (av-uRBC) / (DMSO-uRBC) x100: PopD-D7
# Outline: as §1
# [3] = system: female gametes from mature stage V gametocytes; assay: Dual gamete formation assay: female gamete formation (Pfs25 expression)
# Method: The compounds were tested in the P. falciparum Dual Gamete Formation Assay (PfDGFA)[84], fully described in the Supplementary Information. […]
# Dual gamete formation assays. The compounds were tested in the P. falciparum Dual Gamete Formation Assay (PfDGFA) 13. Briefly, mature stage V gametocytes were exposed to compounds for 48 h at 37°C in 384 well plates in gametocyte culture medium (RPMI 1640 supplemented with 25 mM HEPES, 50 μg/mL hypoxanthine, 4.8 g/L NaHCO3, 2 mM L-glutamine, 5% pooled type AB serum, 0.5% Albumax II (Gibco)) under a 1% O2, 3% CO2, 96% N2 environment. Gametogenesis was then triggered by the addition of 10 μL ookinete medium (gametocyte culture medium supplemented with 100 μM xanthurenic acid and 0.27 µg/mL Cy3-labelled anti-Pfs25 antibody) to each well at room temperature. Plates were then cooled on a metal block at 4°C for four min to ensure even cooling and then stabilised for a further 4 min at 28°C. At 20 min post-induction, male gametogenesis was recorded in each well by automated brightfield microscopy using a x4 objective lens and 1.5x magnifier (x6 effective magnification). Afterward, plates were incubated in the dark at room temperature for 24 h and then female gametogenesis recorded in each well by automated fluorescence microscopy (anti-Pfs25-positive cells). All experiments were performed in quadruplicate with DMSO and cabamiquine (DDD107498)17 as negative and positive controls respectively. All data was evaluated in comparison to the positive and negative controls to calculate percentage inhibition of male and female gametocytes, and dose response analysis and IC50 calculation performed using GraphPad Prism. […]
# [4] = M-833 0.0390625 uM, PopD-D7 replicate 1
# [5] = M-833 0.0390625 uM, PopD-D7 replicate 3
# [6] = M-833 0.078125 uM, PopD-D7 replicate 1
# [7] = M-833 0.078125 uM, PopD-D7 replicate 3
# [8] = M-833 0.15625 uM, PopD-D7 replicate 1
# [9] = M-833 0.15625 uM, PopD-D7 replicate 3
# [10] = M-833 0.3125 uM, PopD-D7 replicate 1
# [11] = M-833 0.3125 uM, PopD-D7 replicate 3
# [12] = M-833 0.625 uM, PopD-D7 replicate 1
# [13] = M-833 0.625 uM, PopD-D7 replicate 3
# [14] = M-833 1.25 uM, PopD-D7 replicate 1
# [15] = M-833 1.25 uM, PopD-D7 replicate 3
# [16] = M-833 2.5 uM, PopD-D7 replicate 1
# [17] = M-833 2.5 uM, PopD-D7 replicate 3
# [18] = M-833 5 uM, PopD-D7 replicate 1
# [19] = M-833 5 uM, PopD-D7 replicate 3
# [20] = M-833 10 uM, PopD-D7 replicate 1
# [21] = M-833 10 uM, PopD-D7 replicate 3
compound,measurement,setting,value
Cc1cc(Cl)c(S(=O)(=O)N2CCCC2)cc1OCC(=O)NC1CCCCC1 [M-833],(av-uRBC) / (DMSO-uRBC) x100,[1]; biological replicate 2,44.7285
same,(av-uRBC) / (DMSO-uRBC) x100,[1]; biological replicate 3,18.154
same,Fold change compared to 3D7,"[1]; Supplementary Table 1, EC50 on PopE-F10 vs 3D7",> 128 fold
same,EC50,"[1]; Supplementary Table 1, PopE-F10 (N330K), 72 h",> 10 µM
same,Normalised to DMSO,[2]; [4],102.734
same,Normalised to DMSO,[2]; [5],100.987
same,Normalised to DMSO,[2]; [6],102.828
same,Normalised to DMSO,[2]; [7],101.481
same,Normalised to DMSO,[2]; [8],103.677
same,Normalised to DMSO,[2]; [9],99.9013
same,Normalised to DMSO,[2]; [10],100.66
same,Normalised to DMSO,[2]; [11],100.592
same,Normalised to DMSO,[2]; [12],98.7744
same,Normalised to DMSO,[2]; [13],98.815
same,Normalised to DMSO,[2]; [14],99.0572
same,Normalised to DMSO,[2]; [15],95.26
same,Normalised to DMSO,[2]; [16],95.8517
same,Normalised to DMSO,[2]; [17],89.6313
same,Normalised to DMSO,[2]; [18],85.4808
same,Normalised to DMSO,[2]; [19],79.5589
same,Normalised to DMSO,[2]; [20],58.4224
same,Normalised to DMSO,[2]; [21],50.0329
same,inhibition at 0.0390625 µM,[2]; [4],-2.73%
same,inhibition at 0.0390625 µM,[2]; [5],-0.987%
same,inhibition at 0.078125 µM,[2]; [6],-2.83%
same,inhibition at 0.078125 µM,[2]; [7],-1.48%
same,inhibition at 0.15625 µM,[2]; [8],-3.68%
same,inhibition at 0.15625 µM,[2]; [9],0.0987%
same,inhibition at 0.3125 µM,[2]; [10],-0.66%
same,inhibition at 0.3125 µM,[2]; [11],-0.592%
same,inhibition at 0.625 µM,[2]; [12],1.23%
same,inhibition at 0.625 µM,[2]; [13],1.18%
same,inhibition at 1.25 µM,[2]; [14],0.943%
same,inhibition at 1.25 µM,[2]; [15],4.74%
same,inhibition at 2.5 µM,[2]; [16],4.15%
same,inhibition at 2.5 µM,[2]; [17],10.4%
same,inhibition at 5 µM,[2]; [18],14.5%
same,inhibition at 5 µM,[2]; [19],20.4%
same,inhibition at 10 µM,[2]; [20],41.6%
same,inhibition at 10 µM,[2]; [21],50%
same,EC50,[2]; read-out: EC50 (95% confidence interval),9.95 µM
same,EC50,"[2]; Supplementary Table 1, PopD-D7 (N309K), 72 h, read-out: EC50",4.88 µM
same,(av-uRBC) / (DMSO-uRBC) x100,"[2]; conc. 3.04832 nM, Biological replicate 1 (2021-10-25)",106.031
same,(av-uRBC) / (DMSO-uRBC) x100,"[2]; conc. 3.04832 nM, Biological replicate 2 (2021-11-03)",107.379
same,(av-uRBC) / (DMSO-uRBC) x100,"[2]; conc. 3.04832 nM, Biological replicate 3 (2021-11-11)",132.053
same,(av-uRBC) / (DMSO-uRBC) x100,"[2]; conc. 9.14495 nM, Biological replicate 1 (2021-10-25)",108.232
same,(av-uRBC) / (DMSO-uRBC) x100,"[2]; conc. 9.14495 nM, Biological replicate 2 (2021-11-03)",108.229
same,(av-uRBC) / (DMSO-uRBC) x100,"[2]; conc. 9.14495 nM, Biological replicate 3 (2021-11-11)",134.103
same,(av-uRBC) / (DMSO-uRBC) x100,"[2]; conc. 27.4348 nM, Biological replicate 1 (2021-10-25)",109.088
same,(av-uRBC) / (DMSO-uRBC) x100,"[2]; conc. 27.4348 nM, Biological replicate 2 (2021-11-03)",108.743
same,(av-uRBC) / (DMSO-uRBC) x100,"[2]; conc. 27.4348 nM, Biological replicate 3 (2021-11-11)",131.145
same,(av-uRBC) / (DMSO-uRBC) x100,"[2]; conc. 82.3045 nM, Biological replicate 1 (2021-10-25)",105.921
same,(av-uRBC) / (DMSO-uRBC) x100,"[2]; conc. 82.3045 nM, Biological replicate 2 (2021-11-03)",106.368
same,(av-uRBC) / (DMSO-uRBC) x100,"[2]; conc. 82.3045 nM, Biological replicate 3 (2021-11-11)",120.919
same,(av-uRBC) / (DMSO-uRBC) x100,"[2]; conc. 246.914 nM, Biological replicate 1 (2021-10-25)",104.521
same,(av-uRBC) / (DMSO-uRBC) x100,"[2]; conc. 246.914 nM, Biological replicate 2 (2021-11-03)",107.825
same,(av-uRBC) / (DMSO-uRBC) x100,"[2]; conc. 246.914 nM, Biological replicate 3 (2021-11-11)",115.806
same,(av-uRBC) / (DMSO-uRBC) x100,"[2]; conc. 740.741 nM, Biological replicate 1 (2021-10-25)",96.6483
same,(av-uRBC) / (DMSO-uRBC) x100,"[2]; conc. 740.741 nM, Biological replicate 2 (2021-11-03)",106.073
same,(av-uRBC) / (DMSO-uRBC) x100,"[2]; conc. 740.741 nM, Biological replicate 3 (2021-11-11)",111.809
same,(av-uRBC) / (DMSO-uRBC) x100,"[2]; conc. 2222.22 nM, Biological replicate 1 (2021-10-25)",83.9595
same,(av-uRBC) / (DMSO-uRBC) x100,"[2]; conc. 2222.22 nM, Biological replicate 2 (2021-11-03)",95.9821
same,(av-uRBC) / (DMSO-uRBC) x100,"[2]; conc. 2222.22 nM, Biological replicate 3 (2021-11-11)",68.0249
same,(av-uRBC) / (DMSO-uRBC) x100,"[2]; conc. 6666.67 nM, Biological replicate 1 (2021-10-25)",42.8085
same,(av-uRBC) / (DMSO-uRBC) x100,"[2]; conc. 6666.67 nM, Biological replicate 2 (2021-11-03)",58.8022
same,(av-uRBC) / (DMSO-uRBC) x100,"[2]; conc. 6666.67 nM, Biological replicate 3 (2021-11-11)",17.0257
same,(av-uRBC) / (DMSO-uRBC) x100,"[2]; conc. 20000 nM, Biological replicate 1 (2021-10-25)",9.309
same,(av-uRBC) / (DMSO-uRBC) x100,"[2]; conc. 20000 nM, Biological replicate 2 (2021-11-03)",11.2449
same,(av-uRBC) / (DMSO-uRBC) x100,"[2]; conc. 20000 nM, Biological replicate 3 (2021-11-11)",4.179
same,Normalised to DMSO,"[2]; PopD-D7 replicate 1, M-833 0.0390625 uM",0.8625
same,Normalised to DMSO,"[2]; PopD-D7 replicate 1, M-833 0.078125 uM",-4.169
same,Normalised to DMSO,"[2]; PopD-D7 replicate 1, M-833 0.15625 uM",-1.581
same,Normalised to DMSO,"[2]; PopD-D7 replicate 1, M-833 0.3125 uM",-1.15
same,Normalised to DMSO,"[2]; PopD-D7 replicate 1, M-833 0.625 uM",-0.1437
same,Normalised to DMSO,"[2]; PopD-D7 replicate 1, M-833 1.25 uM",-3.594
same,Normalised to DMSO,"[2]; PopD-D7 replicate 1, M-833 2.5 uM",7.619
same,Normalised to DMSO,"[2]; PopD-D7 replicate 1, M-833 5 uM",28.7494
same,Fold change compared to 3D7,"[2]; Supplementary Table 1, EC50 on PopD-D7 vs 3D7",31 fold
same,inhibition of female gamete formation,"[3]; 1 µM, 48 h treatment of mature gametocytes",no inhibition
same,"Dual Gamete Formation Assay: Female at 1 µM, Mean",[3]; mean of 4 plates,-1.423
